Test results taken from patent US7192981B2, “3,4-dihydroxyhydrocinnamic acid derivative” (Bionutrigen Co., Ltd., priority 2005, dated 2007).

Tests used:
IR-β [1] = molecular target: T1, IR-β (Rattus norvegicus, UniProt P15127); experiment: Phosphorylation of IR-β in adipocytes, immunoprecipitation and western blot; format: cell-based; settings: SD rat adipocytes, DHH105 2 h, vs untreated control
T1 construct: DHH105-treated adipocytes from SD rats; endogenous in cells; host or cells: adipocytes from SD rats
Protocol: Adipocytes treated with DHH105 for 2 h or insulin for 10 min were homogenized in 5 ml lysis buffer (20 mM Tris, pH 7.4, 1% SDS, 10% glycerol, 150 mM NaCl, 2 mM EDTA, 20 mM NaF, 1 mM NaVO4, 2 mM sodium pyrophosphate, protease inhibitor cocktail, and phosphatase inhibitor cocktail) with a teflon pestle (15 strokes). Homogenized adipocytes were sonicated for 3 min and solubilized for 30 min. The homogenate was centrifuged at 3,000 g for 10 min at 4° C. The protein concentration of the lysate was determined by the Bradford method. After dilution (1 μg/μl protein concentration), the lysates were incubated with anti-insulin receptor-β (IR-β) antibody (Upstate Biotech, Charlottesville, Va.) or anti-IRS-1 antibody (Upstate Biotech) overnight at 4° C. Protein A Sepharose beads (100 μl, Amersham Pharmacia Biotech) were added and the mixture was gently rocked for 2 h at 4° C. […] The membranes were washed and the immunoreactive proteins were detected with an enhanced chemoluminescence western blot detection kit (Amersham Pharmacia Biotech). To examine whether DHH105 treatment increases autophosphorylation of the insulin receptor and its tyrosine kinase activity, the phosphorylation of IR-β and IRS-1 were measured by immunoprecipitation and western blot in DHH105-treated adipocytes from SD rats. […]

IR-β [2] = molecular target: T2, IR-β (Mus musculus, UniProt P15208); experiment: Phosphorylation of IR-β in adipose tissue of treated diabetic mice; format: in vivo; settings: 2 weeks of DHH105 treatment
T2 construct: from tissue; host or cells: fat (adipose) tissue of STZ-induced diabetic C57BL/6 mice and ob/ob mice
Protocol: Adipocytes treated with DHH105 for 2 h or insulin for 10 min were homogenized in 5 ml lysis buffer (20 mM Tris, pH 7.4, 1% SDS, 10% glycerol, 150 mM NaCl, 2 mM EDTA, 20 mM NaF, 1 mM NaVO4, 2 mM sodium pyrophosphate, protease inhibitor cocktail, and phosphatase inhibitor cocktail) with a teflon pestle (15 strokes). Homogenized adipocytes were sonicated for 3 min and solubilized for 30 min. The homogenate was centrifuged at 3,000 g for 10 min at 4° C. The protein concentration of the lysate was determined by the Bradford method. After dilution (1 μg/μl protein concentration), the lysates were incubated with anti-insulin receptor-β (IR-β) antibody (Upstate Biotech, Charlottesville, Va.) or anti-IRS-1 antibody (Upstate Biotech) overnight at 4° C. Protein A Sepharose beads (100 μl, Amersham Pharmacia Biotech) were added and the mixture was gently rocked for 2 h at 4° C. […] The membranes were washed and the immunoreactive proteins were detected with an enhanced chemoluminescence western blot detection kit (Amersham Pharmacia Biotech). To examine whether in vivo treatment of STZ-induced diabetic C57BL/6 mice or ob/ob mice with DHH105 also increases phosphorylation of IR-β, and IRS-1, fat tissue was removed from the mice after 2 weeks of DHH105 treatment and phosphorylation of IR-β and IRS-1 was measured by immunoprecipitation and western blot.

Akt/PKB = Akt/PKB phosphorylation in adipocytes, western blot; format: cell-based, rat; settings: 500 μM, 4 h
Protocol: Proteins were separated by 10% SDS-PAGE and transferred to a polyvinyl difluoride membrane (Amersham Pharmacia Biotech). After transfer, the membranes were blocked with 5% skim milk in Tris-buffered saline with Tween 20 (TBST; 0.05% Tween 20, 200 mM Tris-HCl, 500 mM NaCl, pH 7.5) for 1 h at room temperature. The membranes were incubated with anti-IR-β, anti-IRS-1, anti-phosphotyrosine, or anti-p85 PI3-kinase (Upstate Biotech); anti-Akt/PKB or anti-phospho-Akt/PKB (Cell Signalling Technology, Beverly, Mass.); anti-GLUT4 (Santa Cruz Biotechnology Inc., Santa Cruz, Calif.); or anti-β actin (Sigma) antibody in 5% bovine serum albumin in TBST for 1 h at room temperature or overnight at 4° C. After washing, the membranes were incubated with secondary antibodies labeled with horseradish peroxidase (HRP) in 5% skim milk in TBST for 1 h. The membranes were washed and the immunoreactive proteins were detected with an enhanced chemoluminescence western blot detection kit (Amersham Pharmacia Biotech).

T2 sequence (P15208 753-1372 limits assumed): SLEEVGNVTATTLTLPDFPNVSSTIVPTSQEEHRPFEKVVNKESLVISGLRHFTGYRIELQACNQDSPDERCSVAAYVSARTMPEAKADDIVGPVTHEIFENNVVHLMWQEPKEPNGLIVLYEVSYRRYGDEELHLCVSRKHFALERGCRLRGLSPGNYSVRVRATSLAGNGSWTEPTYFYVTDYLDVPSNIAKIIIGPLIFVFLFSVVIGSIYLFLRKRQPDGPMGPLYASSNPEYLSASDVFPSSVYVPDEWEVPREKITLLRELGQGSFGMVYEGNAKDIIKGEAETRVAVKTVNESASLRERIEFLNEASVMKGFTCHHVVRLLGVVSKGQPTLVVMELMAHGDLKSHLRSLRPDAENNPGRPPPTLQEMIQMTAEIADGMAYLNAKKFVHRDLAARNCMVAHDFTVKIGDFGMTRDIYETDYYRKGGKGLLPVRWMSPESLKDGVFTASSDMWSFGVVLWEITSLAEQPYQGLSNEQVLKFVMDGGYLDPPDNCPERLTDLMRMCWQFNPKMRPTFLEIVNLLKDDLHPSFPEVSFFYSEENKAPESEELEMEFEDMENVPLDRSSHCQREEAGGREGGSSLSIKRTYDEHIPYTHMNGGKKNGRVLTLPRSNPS
T2 sequence (P15208 28-748 limits assumed): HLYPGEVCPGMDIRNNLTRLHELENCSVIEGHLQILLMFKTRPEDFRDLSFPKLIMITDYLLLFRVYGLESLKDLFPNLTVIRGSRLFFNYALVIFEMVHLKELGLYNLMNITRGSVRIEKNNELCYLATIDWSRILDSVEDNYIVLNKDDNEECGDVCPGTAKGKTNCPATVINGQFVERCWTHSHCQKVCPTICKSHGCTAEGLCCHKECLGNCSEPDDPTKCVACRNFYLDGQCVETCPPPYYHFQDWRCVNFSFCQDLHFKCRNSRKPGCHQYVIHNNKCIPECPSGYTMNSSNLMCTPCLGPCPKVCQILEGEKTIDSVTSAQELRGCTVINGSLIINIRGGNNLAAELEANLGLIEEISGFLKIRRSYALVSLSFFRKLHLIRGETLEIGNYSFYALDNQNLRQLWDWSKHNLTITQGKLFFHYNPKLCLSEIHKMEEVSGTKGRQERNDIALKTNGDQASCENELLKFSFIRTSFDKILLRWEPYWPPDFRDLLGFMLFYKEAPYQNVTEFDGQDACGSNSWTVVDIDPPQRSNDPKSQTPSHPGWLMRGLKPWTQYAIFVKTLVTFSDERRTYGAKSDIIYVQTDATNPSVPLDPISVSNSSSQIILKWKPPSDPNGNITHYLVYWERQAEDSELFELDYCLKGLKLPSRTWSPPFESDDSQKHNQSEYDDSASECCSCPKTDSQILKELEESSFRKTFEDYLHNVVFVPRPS
T1 sequence (P15127 764-1383 limits assumed): as the sequence (P15208 753-1372 limits assumed) above, with L13P, V21I, V26A, Q30H, D69E, C72S, S73G, A288V, G580C counted along it
T1 sequence (P15127 27-759 limits assumed): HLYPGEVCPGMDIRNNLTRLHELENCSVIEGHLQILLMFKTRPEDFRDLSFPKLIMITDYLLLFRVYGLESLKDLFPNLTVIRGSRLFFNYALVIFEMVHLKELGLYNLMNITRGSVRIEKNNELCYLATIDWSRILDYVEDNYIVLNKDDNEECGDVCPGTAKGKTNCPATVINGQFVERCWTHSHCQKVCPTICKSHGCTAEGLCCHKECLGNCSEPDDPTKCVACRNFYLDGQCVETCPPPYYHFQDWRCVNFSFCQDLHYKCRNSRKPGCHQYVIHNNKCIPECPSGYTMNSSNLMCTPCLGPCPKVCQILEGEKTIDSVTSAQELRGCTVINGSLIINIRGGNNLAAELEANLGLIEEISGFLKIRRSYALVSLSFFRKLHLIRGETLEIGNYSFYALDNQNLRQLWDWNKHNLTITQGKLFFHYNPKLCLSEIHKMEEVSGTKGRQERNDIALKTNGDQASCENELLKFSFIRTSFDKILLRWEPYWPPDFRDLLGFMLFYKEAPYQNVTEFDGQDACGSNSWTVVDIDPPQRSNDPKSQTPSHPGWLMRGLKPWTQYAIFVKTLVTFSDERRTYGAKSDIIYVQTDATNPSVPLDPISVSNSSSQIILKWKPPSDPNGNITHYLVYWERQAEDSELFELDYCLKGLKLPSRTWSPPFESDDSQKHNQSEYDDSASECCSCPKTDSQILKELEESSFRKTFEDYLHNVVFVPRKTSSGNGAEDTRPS

- phosphorylation of IR-β (IR-β [1]): increased
- phosphorylation of IR-β in adipose tissue (IR-β [2]; STZ-induced diabetic C57BL/6 mice): increased
- phosphorylation of IR-β in adipose tissue (IR-β [2]; ob/ob mice): increased
SMILES: O=C(CCc1ccc(O)c(O)c1)OCc1cccc2ccccc12 [DHH105, 3,4-dihydroxyhydrocinnamic acid naphthalene methyl ester]
- amount of Akt/PKB protein (Akt/PKB): did not change
- phosphorylated Akt/PKB (Akt/PKB; vs untreated control): significantly increased
